# According to PubChem BioAssay (NCI):
#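 In this assay, cells in 96-well plates receive the compound at five concentrations for 48 hours. Endpoints are linearly interpolated between the surrounding concentrations. Here, GI50 denotes the concentration required for 50% inhibition of growth. Definition used: TGI = concentration required for complete inhibition of growth.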 Residues, ends and D or L forms follow the SMILES beside them. *: point of attachment. Boc = CC(C)(C)OC(=O)*
# Legend:
# Experiment in all cases: NCI anticancer screen, dose series, 48 h
# [1] = tested on: HCC-2998 colon
# [2] = tested on: KM12 colon
# [3] = tested on: HCT-15 colon
# [4] = tested on: COLO 205 colon
# [5] = tested on: A549 NSCLC
# [6] = tested on: SW-620 colon
# [7] = tested on: SR leukemia
# [8] = tested on: LOX IMVI melanoma
# [9] = tested on: SF-295 CNS
# [10] = tested on: BT-549 breast
# [11] = tested on: NCI-H460 lung
# [12] = tested on: SN12C renal
# [13] = tested on: MDA-MB-231 breast
# [14] = tested on: K-562 leukemia
# [15] = tested on: DU-145 prostate
# [16] = tested on: HCT-116 colon
# [17] = tested on: SK-MEL-28 melanoma
# [18] = tested on: SK-OV-3 ovarian
# [19] = tested on: UACC-62 melanoma
# [20] = tested on: NCI-H522 lung
# [21] = tested on: RPMI-8226 leukemia
# [22] = tested on: SNB-75 CNS
# [23] = tested on: U251 CNS
# [24] = tested on: MALME-3M melanoma
# [25] = tested on: OVCAR-8 ovarian
# [26] = tested on: MCF7 breast
# [27] = tested on: OVCAR-3 ovarian
# [28] = tested on: MDA-N
# [29] = tested on: HS 578T breast
# [30] = tested on: MOLT-4 leukemia
# [31] = tested on: SF-539 CNS
# [32] = tested on: MDA-MB-435
# [33] = tested on: SF-268 CNS
# [34] = tested on: HOP-92 NSCLC
# [35] = tested on: IGROV1 ovarian
# [36] = tested on: HL-60(TB) leukemia
# [37] = tested on: TK-10 renal
# [38] = tested on: EKVX NSCLC
# [39] = tested on: UACC-257 melanoma
# [40] = tested on: NCI-H23 lung
# [41] = tested on: SK-MEL-2 melanoma
# [42] = tested on: M14 melanoma
# [43] = tested on: CCRF-CEM leukemia
# [44] = tested on: NCI/ADR-RES ovarian
# [45] = tested on: SK-MEL-5 melanoma
# [46] = tested on: OVCAR-4 ovarian
# [47] = tested on: 786-0 renal
# [48] = tested on: A498 renal
# [49] = tested on: SNB-19 CNS
# [50] = tested on: HT29 colon
# [51] = tested on: PC-3 prostate
# [52] = tested on: ACHN renal
# [53] = tested on: NCI-H226 lung
# [54] = tested on: RXF 393 renal
# [55] = tested on: UO-31 renal
# [56] = tested on: OVCAR-5 ovarian
# [57] = tested on: HOP-62 NSCLC
structure (smiles),measurement,setting,value
COC(=O)CNC(=O)C(Cc1ccccc1)NC(=O)C(Cc1ccccc1)NC(=O)OC(C)(C)C (stereo not drawn) (Boc-Phe-Phe-Gly-OMe; configuration not given here),GI50,[1],18.9 µg/mL
same,TGI,[1],40.2 µg/mL
same,GI50,[2],28 µg/mL
same,TGI,[2],74.5 µg/mL
same,GI50,[3],69.8 µg/mL
same,GI50,[4],13.5 µg/mL
same,TGI,[4],69.5 µg/mL
same,GI50,[5],83.3 µg/mL
same,GI50,[6],49.1 µg/mL
same,GI50,[7],21.7 µg/mL
same,TGI,[7],46.4 µg/mL
same,GI50,[8],20.8 µg/mL
same,TGI,[8],50.4 µg/mL
same,GI50,[9],51.1 µg/mL
same,GI50,[10],27.8 µg/mL
same,TGI,[10],69.2 µg/mL
same,GI50,[11],33.7 µg/mL
same,GI50,[12],31.3 µg/mL
same,GI50,[13],48.5 µg/mL
same,GI50,[14],20.7 µg/mL
same,TGI,[14],41.2 µg/mL
same,GI50,[15],27.7 µg/mL
same,GI50,[16],22.5 µg/mL
same,TGI,[16],53.3 µg/mL
same,GI50,[17],18.7 µg/mL
same,TGI,[17],38.2 µg/mL
same,GI50,[18],59.6 µg/mL
same,GI50,[19],15.6 µg/mL
same,TGI,[19],28.9 µg/mL
same,GI50,[20],2.35 µg/mL
same,TGI,[20],12.2 µg/mL
same,GI50,[21],20.9 µg/mL
same,TGI,[21],49 µg/mL
same,GI50,[22],30.1 µg/mL
same,GI50,[23],32.4 µg/mL
same,TGI,[23],94.7 µg/mL
same,GI50,[24],22.3 µg/mL
same,TGI,[24],55 µg/mL
same,GI50,[25],25.7 µg/mL
same,TGI,[25],74.2 µg/mL
same,GI50,[26],34.8 µg/mL
same,GI50,[27],20 µg/mL
same,TGI,[27],42.9 µg/mL
same,GI50,[28],32.9 µg/mL
same,GI50,[29],32.8 µg/mL
same,GI50,[30],18.4 µg/mL
same,TGI,[30],38.8 µg/mL
same,GI50,[31],21.4 µg/mL
same,TGI,[31],41 µg/mL
same,GI50,[32],42.8 µg/mL
same,GI50,[33],78.4 µg/mL
same,GI50,[34],24.9 µg/mL
same,TGI,[34],43.7 µg/mL
same,GI50,[35],41.6 µg/mL
same,GI50,[36],26.5 µg/mL
same,TGI,[36],54.8 µg/mL
same,GI50,[37],37.6 µg/mL
same,GI50,[38],37.1 µg/mL
same,GI50,[39],32.4 µg/mL
same,GI50,[40],35.7 µg/mL
same,GI50,[41],41.2 µg/mL
same,GI50,[42],27.9 µg/mL
same,TGI,[42],65.9 µg/mL
same,GI50,[43],21.1 µg/mL
same,TGI,[43],48.9 µg/mL
CC(C)(C)OC(=O)C1C(=O)NC(=O)CC1CC(OCc1ccccc1)C(COCc1ccccc1)OCc1ccccc1 (stereo not given),TGI,[1],50.4 µM
same,TGI,[3],39.1 µM
same,TGI,[5],> 100 µM
same,TGI,[6],> 100 µM
same,TGI,[7],25 µM
same,TGI,[8],25.5 µM
same,TGI,[9],> 100 µM
same,TGI,[10],32.8 µM
same,TGI,[44],82.8 µM
same,TGI,[45],27.5 µM
same,TGI,[46],> 100 µM
same,TGI,[11],> 100 µM
same,TGI,[12],> 100 µM
same,TGI,[47],> 100 µM
same,TGI,[48],> 100 µM
same,TGI,[14],> 100 µM
same,TGI,[15],80.6 µM
same,TGI,[16],> 100 µM
same,TGI,[17],> 100 µM
same,TGI,[21],15.8 µM
same,TGI,[49],> 100 µM
same,TGI,[23],24.8 µM
same,TGI,[50],14.3 µM
same,TGI,[24],11.5 µM
same,TGI,[25],> 100 µM
same,TGI,[28],79.1 µM
same,TGI,[29],66.6 µM
same,TGI,[30],13.1 µM
same,TGI,[31],39.8 µM
same,TGI,[32],20.7 µM
same,TGI,[51],37.7 µM
same,TGI,[52],70.4 µM
same,TGI,[53],93.3 µM
same,TGI,[33],> 100 µM
same,TGI,[34],46.2 µM
same,TGI,[54],8.95 µM
same,TGI,[35],> 100 µM
same,TGI,[36],4.34 µM
same,TGI,[37],> 100 µM
same,TGI,[55],6.02 µM
same,TGI,[38],> 100 µM
same,TGI,[39],53.4 µM
same,TGI,[40],45.7 µM
same,TGI,[42],> 100 µM
same,TGI,[43],> 100 µM
C/C1=C\[C@H](C)C[C@H](C)OC(=O)C[C@H](c2ccc(O)cc2)NC(=O)[C@H](Cc2ccc(O)c(I)c2)N(C)C(=O)[C@H](C)NC(=O)[C@@H](C)C1,TGI,[2],> 25 µM
same,TGI,[3],> 25 µM
same,TGI,[4],> 25 µM
same,TGI,[5],> 25 µM
same,TGI,[6],> 25 µM
same,TGI,[7],> 25 µM
same,TGI,[8],> 25 µM
same,TGI,[9],> 25 µM
same,TGI,[44],18.8 µM
same,TGI,[45],11.1 µM
same,TGI,[46],0.0186 µM
same,TGI,[12],22.9 µM
same,TGI,[13],0.433 µM
same,TGI,[47],> 25 µM
same,TGI,[48],0.0948 µM
same,TGI,[14],> 25 µM
same,TGI,[15],> 25 µM
same,TGI,[16],18.6 µM
same,TGI,[17],> 25 µM
same,TGI,[18],16.9 µM
same,TGI,[19],8.77 µM
same,TGI,[20],> 25 µM
same,TGI,[21],> 25 µM
same,TGI,[49],> 25 µM
same,TGI,[56],> 25 µM
same,TGI,[22],10.3 µM
same,TGI,[23],6.9 µM
same,TGI,[50],> 25 µM
same,TGI,[24],3.06 µM
same,TGI,[25],3.45 µM
same,TGI,[26],> 25 µM
same,TGI,[27],> 25 µM
same,TGI,[28],13.8 µM
same,TGI,[29],0.245 µM
same,TGI,[30],> 25 µM
same,TGI,[32],5.18 µM
same,TGI,[51],> 25 µM
same,TGI,[52],> 25 µM
same,TGI,[53],> 25 µM
same,TGI,[33],0.153 µM
same,TGI,[34],0.118 µM
same,TGI,[35],> 25 µM
same,TGI,[37],> 25 µM
same,TGI,[55],0.185 µM
same,TGI,[38],6.84 µM
same,TGI,[57],> 25 µM
same,TGI,[40],> 25 µM
same,TGI,[41],6.78 µM
same,TGI,[42],> 25 µM
same,TGI,[43],> 25 µM
